Key:
Test in all cases: relative viability (nuclei count vs DMSO), 5 days (fraction); higher = more cells survive
Zebularine + Pemetrexed = compound: O=c1ncccn1[C@@H]1O[C@H](CO)[C@@H](O)[C@H]1O [Zebularine] + Nc1nc2[nH]cc(CCc3ccc(C(=O)N[C@@H](CCC(=O)O)C(=O)O)cc3)c2c(=O)[nH]1 [Pemetrexed] (partner 0.2 µM)
In short: (§1)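 Nuclei were stained with Hoechst during a one-step fixation (final 0.05% Triton X-100, 1% formaldehyde, 1 ug/ml Hoechst) carried out 5 days after dosing, then counted on 4× images. The cells, lung cancer lines in 1536-well plates, had been dosed by pin tool the day after seeding with one drug alone or a fixed anchor-drug dose plus five library-drug doses (not always all listed) in √10 steps. Relative viability is the nuclei count in treated wells divided by that in vehicle wells, and each value is the median of duplicate plates.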

Zebularine + OSI-027 = compound: O=c1ncccn1[C@@H]1O[C@H](CO)[C@@H](O)[C@H]1O [Zebularine] + COc1cccc2cc(-c3nc([C@H]4CC[C@H](C(=O)O)CC4)n4ncnc(N)c34)[nH]c12 [OSI-027] (partner 0.5 µM)
In short: as §1

Zebularine + Lapatinib = compound: O=c1ncccn1[C@@H]1O[C@H](CO)[C@@H](O)[C@H]1O [Zebularine] + CS(=O)(=O)CCNCc1ccc(-c2ccc3ncnc(Nc4ccc(OCc5cccc(F)c5)c(Cl)c4)c3c2)o1 [Lapatinib] (partner 2 µM)
In short: as §1

BI-D1870 + Foretinib = compound: CC(C)CCN1c2nc(Nc3cc(F)c(O)c(F)c3)ncc2N(C)C(=O)C1C [BI-D1870] + COc1cc2c(Oc3ccc(NC(=O)C4(C(=O)Nc5ccc(F)cc5)CC4)cc3F)ccnc2cc1OCCCN1CCOCC1 [Foretinib] (partner 0.25 µM)
In short: as §1

| Cell Line | relative viability (Zebularine + Pemetrexed; first compound 1 µM) | relative viability (Zebularine + Pemetrexed; first compound 3.162 µM) | relative viability (Zebularine + Pemetrexed; first compound 10 µM) | relative viability (Zebularine + Pemetrexed; first compound 31.62 µM) | relative viability (Zebularine + Pemetrexed; first compound 100 µM) | relative viability (Zebularine + OSI-027; first compound 1 µM) | relative viability (Zebularine + OSI-027; first compound 3.162 µM) | relative viability (Zebularine + OSI-027; first compound 10 µM) | relative viability (Zebularine + OSI-027; first compound 31.62 µM) | relative viability (Zebularine + OSI-027; first compound 100 µM) | relative viability (Zebularine + Lapatinib; first compound 1 µM) | relative viability (Zebularine + Lapatinib; first compound 3.162 µM) | relative viability (Zebularine + Lapatinib; first compound 10 µM) | relative viability (Zebularine + Lapatinib; first compound 31.62 µM) | relative viability (Zebularine + Lapatinib; first compound 100 µM) | relative viability (BI-D1870 + Foretinib; first compound 0.04 µM) | relative viability (BI-D1870 + Foretinib; first compound 0.1265 µM) | relative viability (BI-D1870 + Foretinib; first compound 0.4 µM) | relative viability (BI-D1870 + Foretinib; first compound 1.265 µM) | relative viability (BI-D1870 + Foretinib; first compound 4 µM) |
| --- | --- | --- | --- | --- | --- | --- | --- | --- | --- | --- | --- | --- | --- | --- | --- | --- | --- | --- | --- | --- |
| NCI-H2087 | 0.722 | 0.667 | 0.511 | 0.548 | 0.216 | 0.379 | 0.457 | 0.286 | 0.508 | 0.27 | 1.16 | 0.662 | 0.615 | 0.924 | 0.275 | 1.16 | 1.23 | 1.27 | 1.12 | 0.982 |
| NCI-H2126 | 0.635 | 0.487 | 0.592 | 0.453 | 0.348 | 0.721 | 0.718 | 0.619 | 0.8 | 0.602 | 0.843 | 0.774 | 0.695 | 0.76 | 0.619 | 1.23 | 1.14 | 1.22 | 1.15 | 1.06 |
| NCI-H2170 | 0.273 | 0.289 | 0.273 | 0.27 | 0.221 | 0.86 | 0.63 | 0.569 | 0.678 | 0.432 | 0.302 | 0.263 | 0.251 | 0.26 | 0.266 | 1.06 | 0.971 | 1.05 | 0.934 | 0.957 |
| NCI-H2228 | 0.403 | 0.293 | – | 0.264 | 0.152 | 0.604 | 0.514 | 0.284 | 0.607 | 0.275 | 1.19 | 1.04 | 0.66 | 0.638 | 0.281 | 1.03 | 0.806 | 0.941 | 0.821 | 0.647 |
| NCI-H2347 | 0.459 | 0.466 | 0.402 | 0.361 | 0.335 | 0.444 | 0.412 | 0.443 | 0.424 | 0.393 | 1.07 | 0.783 | 0.816 | 0.628 | 0.45 | 0.977 | 0.993 | 0.903 | 0.723 | 0.863 |
| NCI-H2405 | 1.14 | 0.913 | 0.795 | 1.09 | 0.681 | 0.672 | 0.597 | 0.592 | 0.676 | 0.547 | 1.06 | 0.946 | 0.906 | 0.963 | 0.76 | 1.09 | 0.994 | 1.01 | 1.05 | 0.859 |
| NCI-H3122 | 0.189 | 0.183 | 0.175 | 0.225 | 0.225 | 1.24 | 1.03 | 0.603 | 1.03 | 0.755 | 1.12 | 1.05 | 0.911 | 1.04 | 1.05 | 0.898 | 0.942 | 0.96 | 0.974 | 0.889 |
| PC-3 [JPC-3] | 1.43 | 1.06 | 1.07 | 0.755 | 0.813 | 0.832 | 0.701 | 0.554 | 0.663 | 0.656 | 0.479 | 0.471 | 0.412 | 0.482 | 0.411 | 0.999 | 1.01 | 1.02 | 1.06 | 0.961 |
| PC-14 | 0.136 | 0.139 | 0.0749 | 0.0697 | 0.0552 | 0.778 | 0.437 | 0.146 | 0.121 | 0.0877 | 0.448 | 0.296 | 0.201 | 0.163 | 0.126 | 0.936 | 0.865 | 0.908 | 0.952 | 0.945 |
| RERF-LC-KJ | 0.447 | 0.505 | 0.415 | 0.507 | 0.443 | 0.715 | 0.523 | 0.51 | 0.548 | 0.575 | 0.901 | 0.946 | – | 0.92 | 0.863 | 0.885 | 0.842 | 0.878 | 0.846 | 0.909 |
| SK-LU-1 | 1.03 | 0.922 | 0.52 | 0.523 | 0.542 | 0.369 | 0.359 | 0.31 | 0.291 | 0.302 | 0.896 | 0.9 | 0.545 | 0.676 | 0.448 | 0.86 | 0.676 | 0.739 | 0.798 | 0.525 |
| SK-MES-1 | 1.08 | 0.918 | 0.613 | 0.709 | 0.322 | 0.707 | 0.606 | 0.454 | 0.514 | 0.288 | 0.484 | 0.435 | 0.397 | 0.427 | 0.269 | 0.871 | 0.77 | 0.706 | 0.868 | 0.769 |
| SW 1573 | 0.798 | 0.854 | – | 0.855 | 0.522 | 0.603 | 0.606 | – | 0.506 | 0.443 | 1.24 | 0.773 | 0.502 | 1.23 | 0.873 | 0.958 | 0.783 | 0.853 | 0.937 | 0.881 |

Reference: the supplement of paper PMC10307832
